Measured values: patent US9908912B2, “Triclosan derivatives and uses thereof” (priority 2012, dated 2018)
Converted amounts (≈) assume the structure as drawn.

Experiments:
Strep. viridans OCC 234 = experiment: MIC in Nutrient Broth No. 2; format: cell-based, Streptococcus viridans; details: Nutrient Broth No. 2
Experimental: (§1) Bacteria species as indicated in Table 1 were incubated for approximately 24 hours at 37° C.
(§2) The tests were repeated with the addition of inducers. Methyl glycoside was the main inducer used, but other suitable inducers include isopropyl-β-D-thiogalactopyranoside, p-nitrophenyl-α-L-arabinopyranoside and p-nitrophenyl-β-D-xylopyranoside. Concentration of inducer in all cases was 100 μg/ml.

Ent. faecalis = experiment: MIC in Nutrient Agar; format: cell-based, Enterococcus faecalis; details: Nutrient Agar containing 0.1 μg/ml of inducer; 37° C., 24 hours
Experimental: (§3) The triclosan-glycosides were added to Nutrient Agar (Oxoid CM0003; Thermofisher Scientific) and organisms were transferred onto the plates surface using a multi-point inoculation device (Oxoid Cathra, Thermofisher Scientific). The latter is essentially a metal plate containing a number of needles. Each needle tip (usually 36 per plate) dips into an organism suspension (in phosphate buffered saline; PBS) and the needles are then moved over the agar plate and lowered onto its surface. In this way the growth of colonies of up to 36 different organisms can be observed on one plate.
(§4) Nutrient Agar No. 2 was prepared according to the manufacturers instructions, autoclaved and cooled to 50° C. Test compounds were then added as filter sterilised solutions (50:50 deionised water:ethanol), to give final concentrations from 256 μg/ml to 0 μg/ml in doubling dilutions. […] The mixtures were swirled then four plates (25 ml molten agar) were poured for each concentration. Plates were dried in a laminar flow cabinet then inoculated with overnight cultures of organisms that had been decimally diluted twice in sterile saline solution (approximately 10^7 cfu/ml) using a multi-point inoculator. Plates were then incubated at 37° C. for 24 hours. MICs were determined as the concentration at which no growth was observed.

[1] = tested on: Strep. pyogenes ATCC 19615; experiment: MIC in Nutrient Broth No. 2; format: cell-based, Streptococcus pyogenes; details: Nutrient Broth No. 2
Experimental: as §1, §2

[2] = tested on: Staph. haemolyticus OCC 2223; experiment: MIC in Nutrient Broth No. 2; format: cell-based, Staphylococcus haemolyticus; details: Nutrient Broth No. 2
Experimental: as §1, §2

[3] = tested on: Staph. saprophyticus ATCC 15305; experiment: MIC in Nutrient Broth No. 2; format: cell-based, Staphylococcus saprophyticus; details: Nutrient Broth No. 2
Experimental: as §1, §2

[4] = tested on: Crono. sakazakii ATCC 29544; experiment: MIC in Nutrient Broth No. 2; format: cell-based, Cronobacter sakazakii; details: Nutrient Broth No. 2
Experimental: as §1, §2

E. coli = experiment: MIC in Nutrient Agar; format: cell-based, Escherichia coli; details: 8 strains; Nutrient Agar containing 0.1 μg/ml of inducer; 37° C., 24 hours
Experimental: as §3, §4

Ent. cloacae ATCC 13047 = experiment: MIC in Nutrient Broth No. 2; format: cell-based, Enterobacter cloacae; details: Nutrient Broth No. 2
Experimental: as §1, §2

S. aureus = experiment: MIC in Nutrient Agar; format: cell-based, Staphylococcus aureus; details: 8 strains; Nutrient Agar containing 0.1 μg/ml of inducer; 37° C., 24 hours
Experimental: as §3, §4

Ent. aerogenes = experiment: MIC in Nutrient Agar; format: cell-based, Enterobacter aerogenes; details: Nutrient Agar containing 0.1 μg/ml of inducer; 37° C., 24 hours
Experimental: as §3, §4

Staph. aureus = experiment: MIC in Nutrient Broth No. 2; format: cell-based, Staphylococcus aureus; details: 8 strains, Nutrient Broth No. 2
Experimental: as §1, §2

Ent. faecium = experiment: MIC in Nutrient Agar; format: cell-based, Enterococcus faecium; details: Nutrient Agar containing 0.1 μg/ml of inducer; 37° C., 24 hours
Experimental: as §3, §4

[5] = tested on: Strep. agalactiae OCC 182; experiment: MIC in Nutrient Broth No. 2; format: cell-based, Streptococcus agalactiae; details: Nutrient Broth No. 2
Experimental: as §1, §2

[6] = tested on: Kleb. aerogenes NCTC 88167; experiment: MIC in Nutrient Broth No. 2; format: cell-based, Klebsiella aerogenes; details: Nutrient Broth No. 2
Experimental: as §1, §2

Staph. epidermidis = experiment: MIC in Nutrient Broth No. 2; format: cell-based, Staphylococcus epidermidis; details: 3 strains, Nutrient Broth No. 2
Experimental: as §1, §2

Kleb. aerogenes = experiment: MIC in Nutrient Agar; format: cell-based, Klebsiella aerogenes; details: Nutrient Agar containing 0.1 μg/ml of inducer; 37° C., 24 hours
Experimental: as §3, §4

Aer. hydrophila = experiment: MIC in Nutrient Agar; format: cell-based, Aeromonas hydrophila; details: Nutrient Agar containing 0.1 μg/ml of inducer; 37° C., 24 hours
Experimental: as §3, §4

Salmonella = experiment: MIC in Nutrient Agar; format: cell-based; details: 11 strains; Nutrient Agar containing 0.1 μg/ml of inducer; 37° C., 24 hours
Experimental: as §3, §4

[7] = tested on: Bacteria species as indicated in Table 1; experiment: MIC in Nutrient Broth No. 2 (over organisms of Table 1); format: cell-based; details: all strains of Citrobacter freundii, Enterobacter cloacae, Escherichia coli, Escherichia hermanii, Hafnia alvei, Klebsiella, Proteus, Salmonella, Staphylococcus
Experimental: as §1, §2

Structure (SMILES)	MIC (Strep. viridans OCC 234; with inducer 100 μg/ml) [µg/mL]	MIC (Strep. viridans OCC 234; without inducer) [µg/mL]	MIC (Ent. faecalis) [µg/mL]	MIC ([1]; with inducer 100 μg/ml) [µg/mL]	MIC ([1]; without inducer) [µg/mL]	MIC ([2]; with inducer 100 μg/ml) [µg/mL]	MIC ([2]; without inducer) [µg/mL]	MIC ([3]; with inducer 100 μg/ml) [µg/mL]	MIC ([3]; without inducer) [µg/mL]	MIC ([4]; with inducer 100 μg/ml) [µg/mL]	MIC ([4]; without inducer) [µg/mL]	MIC (E. coli) [µg/mL]	MIC (Ent. cloacae ATCC 13047; with inducer 100 μg/ml) [µg/mL]	MIC (Ent. cloacae ATCC 13047; without inducer) [µg/mL]	MIC (S. aureus) [µg/mL]	MIC (Ent. aerogenes) [µg/mL]	MIC (Staph. aureus; with inducer 100 μg/ml) [µg/mL]	MIC (Staph. aureus; without inducer) [µg/mL]	MIC (Ent. faecium) [µg/mL]	MIC ([5]; with inducer 100 μg/ml) [µg/mL]	other results
OC[C@H]1O[C@H](Oc2cc(Cl)ccc2Oc2ccc(Cl)cc2Cl)[C@H](O)[C@@H](O)[C@H]1O [α-D-Galactoside, triclosan-α-D-galactopyranoside]	>256	>256	>256	256 (≈ 567 µM)	256 (≈ 567 µM)	32 (≈ 70.8 µM)	16 (≈ 35.4 µM)	64 (≈ 142 µM)	64 (≈ 142 µM)	64 (≈ 142 µM)	128 (≈ 283 µM)	8 to 32	16 (≈ 35.4 µM)	32 (≈ 70.8 µM)	4 to 8	64 (≈ 142 µM)	8 to 16	8 to 16	>256	>256	MIC ([5]; without inducer): >256 µg/mL; MIC ([6]; with inducer 100 μg/ml): 64 µg/mL (≈ 142 µM); MIC ([6]; without inducer): 32 µg/mL (≈ 70.8 µM); MIC (Staph. epidermidis; with inducer 100 μg/ml): 4 to 256 µg/mL; MIC (Staph. epidermidis; without inducer): 8 to 32 µg/mL; MIC (Kleb. aerogenes): 32 µg/mL (≈ 70.8 µM); MIC (Aer. hydrophila): >256 µg/mL
OC[C@H]1O[C@H](Oc2cc(Cl)ccc2Oc2ccc(Cl)cc2Cl)[C@H](O)[C@@H](O)[C@@H]1O [α-D-Glucoside, triclosan-α-D-glucopyranoside]	64 (≈ 142 µM)	128 (≈ 283 µM)	128 (≈ 283 µM)	16 (≈ 35.4 µM)	32 (≈ 70.8 µM)	1 (≈ 2.21 µM)	1 (≈ 2.21 µM)	4 (≈ 8.86 µM)	4 (≈ 8.86 µM)	4 (≈ 8.86 µM)	8 (≈ 17.7 µM)	0.5 to 4	1 (≈ 2.21 µM)	1 (≈ 2.21 µM)	0.25 to 1	4 (≈ 8.86 µM)	1 (≈ 2.21 µM)	1 (≈ 2.21 µM)	128 (≈ 283 µM)	128 (≈ 283 µM)	MIC ([5]; without inducer): 128 µg/mL (≈ 283 µM); MIC ([6]; with inducer 100 μg/ml): 4 µg/mL (≈ 8.86 µM); MIC ([6]; without inducer): 2 µg/mL (≈ 4.43 µM); MIC (Staph. epidermidis; with inducer 100 μg/ml): 1 µg/mL (≈ 2.21 µM); MIC (Staph. epidermidis; without inducer): 1 µg/mL (≈ 2.21 µM); MIC (Salmonella): 1 to 4 µg/mL; MIC (Kleb. aerogenes): 2 µg/mL (≈ 4.43 µM); MIC (Aer. hydrophila): 128 µg/mL (≈ 283 µM)
OC[C@H]1O[C@H](Oc2cc(Cl)ccc2Oc2ccc(Cl)cc2Cl)[C@@H](O)[C@@H](O)[C@@H]1O [α-D-Mannoside, triclosan-α-D-mannopyranoside]	128 (≈ 283 µM)	128 (≈ 283 µM)	256 (≈ 567 µM)	32 (≈ 70.8 µM)	32 (≈ 70.8 µM)	8 (≈ 17.7 µM)	8 (≈ 17.7 µM)	32 (≈ 70.8 µM)	32 (≈ 70.8 µM)	32 (≈ 70.8 µM)	128 (≈ 283 µM)	8 to 64	8 (≈ 17.7 µM)	8 (≈ 17.7 µM)	4 to 8	64 (≈ 142 µM)	2 to 8	2 to 8	256 (≈ 567 µM)	128 (≈ 283 µM)	inhibition of growth at 64 μg/ml in Nutrient Broth [7]: inhibited; MIC ([5]; without inducer): 128 µg/mL (≈ 283 µM); MIC ([6]; with inducer 100 μg/ml): 32 µg/mL (≈ 70.8 µM); MIC ([6]; without inducer): 32 µg/mL (≈ 70.8 µM); MIC (Staph. epidermidis; with inducer 100 μg/ml): 4 to 8 µg/mL; MIC (Staph. epidermidis; without inducer): 4 to 8 µg/mL; MIC (Salmonella): 16 to 32 µg/mL; MIC (Kleb. aerogenes): 32 µg/mL (≈ 70.8 µM); MIC (Aer. hydrophila): 256 µg/mL (≈ 567 µM)
O[C@@H]1[C@H](Oc2cc(Cl)ccc2Oc2ccc(Cl)cc2Cl)OC[C@@H](O)[C@H]1O [β-D-Arabinoside, triclosan-β-D-arabinopyranoside]	128 (≈ 304 µM)	128 (≈ 304 µM)	256 (≈ 607 µM)	32 (≈ 75.9 µM)	32 (≈ 75.9 µM)	16 (≈ 37.9 µM)	128 (≈ 304 µM)	64 (≈ 152 µM)	64 (≈ 152 µM)	64 (≈ 152 µM)	128 (≈ 304 µM)	8 to 32	16 (≈ 37.9 µM)	16 (≈ 37.9 µM)	8 to 16	64 (≈ 152 µM)	4 to 8	4 to 8	256 (≈ 607 µM)	128 (≈ 304 µM)	MIC ([5]; without inducer): 128 µg/mL (≈ 304 µM); MIC ([6]; with inducer 100 μg/ml): 32 µg/mL (≈ 75.9 µM); MIC ([6]; without inducer): 32 µg/mL (≈ 75.9 µM); MIC (Staph. epidermidis; with inducer 100 μg/ml): 4 to 64 µg/mL; MIC (Staph. epidermidis; without inducer): 8 to 16 µg/mL; MIC (Salmonella): 32 to 64 µg/mL; MIC (Kleb. aerogenes): 64 µg/mL (≈ 152 µM); MIC (Aer. hydrophila): 256 µg/mL (≈ 607 µM)
OC[C@H]1O[C@@H](Oc2cc(Cl)ccc2Oc2ccc(Cl)cc2Cl)[C@H](O)[C@@H](O)[C@@H]1O [β-D-Glucoside, triclosan-β-D-glucopyranoside]	128 (≈ 283 µM)	256 (≈ 567 µM)	>256	16 (≈ 35.4 µM)	32 (≈ 70.8 µM)	0.5 (≈ 1.11 µM)	16 (≈ 35.4 µM)	8 (≈ 17.7 µM)	64 (≈ 142 µM)	8 (≈ 17.7 µM)	64 (≈ 142 µM)	16 to 32	1 (≈ 2.21 µM)	16 (≈ 35.4 µM)	4 to 8	32 (≈ 70.8 µM)	0.5 to 2	4 to 8	>256	128 (≈ 283 µM)	MIC ([5]; without inducer): 256 µg/mL (≈ 567 µM); MIC ([6]; with inducer 100 μg/ml): 4 µg/mL (≈ 8.86 µM); MIC ([6]; without inducer): 32 µg/mL (≈ 70.8 µM); MIC (Staph. epidermidis; with inducer 100 μg/ml): 0.5 to 1 µg/mL; MIC (Staph. epidermidis; without inducer): 8 to 16 µg/mL; MIC (Salmonella): 16 to 128 µg/mL; MIC (Kleb. aerogenes): 32 µg/mL (≈ 70.8 µM); MIC (Aer. hydrophila): >256 µg/mL
